Source: ChEMBL document CHEMBL6092191, “Advancing Cancer Immunotherapy through Engineering New PD-L1 Degraders: A Comprehensive Study from Small Molecules to PD-L1-Specific Peptide-Drug Conjugates” (J Med Chem, 2024)
The source made the active and inactive calls. The rule behind the calls is not given here.

Columns and labels:
[1] = target: COP9 signalosome complex subunit 5 (Homo sapiens) (UniProt Q92905); assay: Induction of PD-L1 degradation in human NCI-H460 cells at 10 to 20 uM incubated for 2 days by Western blot analysis; type: cell-based; conditions: dose 10-20 µM, time 2.0 day
Chain of COP9 signalosome complex subunit 5 (Homo sapiens) (Q92905 2-334 limits assumed, one chain of several): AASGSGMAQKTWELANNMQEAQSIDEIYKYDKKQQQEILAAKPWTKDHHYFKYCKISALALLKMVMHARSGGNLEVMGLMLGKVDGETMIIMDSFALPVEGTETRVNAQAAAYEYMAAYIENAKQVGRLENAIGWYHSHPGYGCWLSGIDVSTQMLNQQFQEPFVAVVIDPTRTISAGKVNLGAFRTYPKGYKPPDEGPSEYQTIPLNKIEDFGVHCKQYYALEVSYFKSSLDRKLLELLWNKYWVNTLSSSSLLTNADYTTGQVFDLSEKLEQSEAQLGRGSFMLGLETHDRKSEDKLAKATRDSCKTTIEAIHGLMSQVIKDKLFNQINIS

HEK-293T = assay: Antiproliferative activity against HEK293T cells at 10 uM incubated for 4 days; type: toxicity, cell-based; conditions: human, 96 h, time 4 day
3T3-L1 = assay: Antiproliferative activity against mouse 3T3-L1 cells at 10 uM incubated for 4 days; type: toxicity, cell-based; conditions: 3t3-l1, 96 h, time 4 day
[2] = Antiproliferative activity against human HTori-3 cells at 10 uM incubated for 4 days; type: toxicity, cell-based; conditions: htori-3, 96 h, time 4 day
[3] = system: Lewis lung carcinoma cell line; assay: Antitumor activity against Lewis lung carcinoma cells xenografted in C57BL/6 mouse model at 29.5 mg/kg, ip administered daily for 8 days relative to control; type: functional; conditions: 192 h, time 8 day, read-out: TGI
[4] = system: Lewis lung carcinoma cell line; assay: Antitumor activity against Lewis lung carcinoma cells xenografted in C57BL/6 mouse model assessed as decrease in Ki-67 level at 29.5 mg/kg, ip administered daily for 8 days by IHC analysis; type: functional, organism-based; conditions: time 8.0 day
Mus musculus = assay: In vivo induction of PD-L1 degradation in […] lung carcinoma cells xenografted in C57BL/6 mouse model at 29.5 mg/kg, ip administered daily for 8 days by IHC analysis; type: functional, organism-based; conditions: time 8.0 day
[5] = system: Lewis lung carcinoma cell line; assay: Antitumor T-cell immune response in Lewis lung carcinoma cells xenografted in C57BL/6 mouse model assessed as decrease in CD3+ CD4+ population in CD45+ T cells in tumor at 29.5 mg/kg, ip administered daily for 8 days by flow cytometry; type: functional, organism-based; conditions: time 8.0 day
[6] = system: Lewis lung carcinoma cell line; assay: Antitumor T-cell immune response in Lewis lung carcinoma cells xenografted in C57BL/6 mouse model assessed as increase in CD3+ CD8+ infiltration in CD45+ T cells in tumor at 29.5 mg/kg, ip administered daily for 8 days by flow cytometry; type: functional, organism-based; conditions: time 8.0 day
[7] = Toxicity in C57BL/6 mouse model xenografted with […] cells assessed as obvious body weight change at 29.5 mg/kg, ip administered daily for 8 days; type: organism-based; conditions: in vivo, 192 h, time 8 day
[8] = system: Lewis lung carcinoma cell line; assay: Antitumor T-cell immune response in Lewis lung carcinoma cells xenografted in C57BL/6 mouse model assessed as increase in ratio of CD8+ to CD4+ T cells in tumor at 29.5 mg/kg, ip administered daily for 8 days by flow cytometry; type: functional, organism-based; conditions: time 8.0 day
[9] = Toxicity in C57BL/6 mouse model xenografted with […] cells assessed as damage in heart at 29.5 mg/kg, ip administered daily for 8 days by H and E staining based analysis; type: organism-based; conditions: in vivo, 192 h, time 8 day
[10] = Toxicity in C57BL/6 mouse model xenografted with […] cells assessed as damage in liver at 29.5 mg/kg, ip administered daily for 8 days by H and E staining based analysis; type: organism-based; conditions: in vivo, 192 h, time 8 day
[11] = Toxicity in C57BL/6 mouse model xenografted with […] cells assessed as damage in lung at 29.5 mg/kg, ip administered daily for 8 days by H and E staining based analysis; type: organism-based; conditions: in vivo, 192 h, time 8 day
[12] = Toxicity in C57BL/6 mouse model xenografted with […] cells assessed as damage in kidney at 29.5 mg/kg, ip administered daily for 8 days by H and E staining based analysis; type: organism-based; conditions: in vivo, 192 h, time 8 day
[13] = Toxicity in C57BL/6 mouse model xenografted with […] cells assessed as damage in spleen at 29.5 mg/kg, ip administered daily for 8 days by H and E staining based analysis; type: organism-based; conditions: in vivo, 192 h, time 8 day
[14] = Toxicity in C57BL/6 mouse model xenografted with […] cells assessed as change in ALT level at 29.5 mg/kg, ip administered daily for 8 days; type: organism-based, Blood; conditions: in vivo, 192 h, time 8 day
[15] = Toxicity in C57BL/6 mouse model xenografted with […] cells assessed as change in AST level at 29.5 mg/kg, ip administered daily for 8 days; type: organism-based, Blood; conditions: in vivo, 192 h, time 8 day
[16] = Toxicity in C57BL/6 mouse model xenografted with […] cells assessed as change in BUN level at 29.5 mg/kg, ip administered daily for 8 days; type: organism-based, Blood; conditions: in vivo, 192 h, time 8 day
[17] = Toxicity in C57BL/6 mouse model xenografted with […] cells assessed as change in creatinine level at 29.5 mg/kg, ip administered daily for 8 days; type: organism-based; conditions: in vivo, 192 h, time 8 day

SMILES: COc1cc2c(cc1OC)-c1cc3ccc(OC)c(OCCNC(=O)OCCSSC[C@H](N)C(=O)NCCCCCC(=O)N[C@@H](CC(N)=O)C(=O)N[C@@H](Cc4ccc(O)cc4)C(=O)N[C@@H](CO)C(=O)N[C@@H](CCCCN)C(=O)N4CCC[C@H]4C(=O)N[C@H](C(=O)N[C@@H](CC(=O)O)C(=O)N[C@@H](CCCNC(=N)N)C(=O)N[C@@H](CCC(N)=O)C(=O)N[C@@H](Cc4ccc(O)cc4)C(=O)N[C@@H](Cc4cnc[nH]4)C(=O)N[C@@H](Cc4ccccc4)C(=O)O)[C@@H](C)O)c3c[n+]1CC2.[Cl-]
- Activity [1]: Active; Comparable To Pmt-O9-1A
- Activity (HEK-293T): Non-toxic
- Activity (3T3-L1): Non-toxic
- Activity [2]: Non-toxic
- inhibition in vivo at 29.5 mg/kg [3]: 89%
- Activity [4]: Active
- Activity (Mus musculus): Active
- Activity [5]: Active
- Activity [6]: Active
- Activity [7]: Non-toxic
- Activity [8]: Active
- Activity [9]: Non-toxic
- Activity [10]: Non-toxic
- Activity [11]: Non-toxic
- Activity [12]: Non-toxic
- Activity [13]: Non-toxic
- Activity [14]: Non-toxic
- Activity [15]: Non-toxic
- Activity [16]: Non-toxic
- Activity [17]: Non-toxic
